Residues, ends and D or L forms follow the SMILES beside them.
Key:
Homo sapiens [1] = organism: Homo sapiens; experiment: Inhibition of P-gp in human KB/VCR cells assessed as potentiation of vincristine-induced cytotoxicity by measuring fold reduction in vincristine IC50 at 5 uM; assay type: cell-based
Homo sapiens [2] = organism: Homo sapiens; experiment: Inhibition of P-gp in human MCF7/DOX cells assessed as potentiation of doxorubicin-induced cytotoxicity by measuring fold reduction in doxorubicin IC50 at 5 uM; assay type: cell-based
K562/A02 [3] = experiment: Inhibition of P-gp in human K562/A02 cells assessed as potentiation of doxorubicin-induced cytotoxicity by measuring fold reduction in doxorubicin IC50 at 5 uM; assay type: cell-based
Homo sapiens [4] = organism: Homo sapiens; experiment: Inhibition of P-gp in human Caco2 cells assessed as potentiation of doxorubicin-induced cytotoxicity by measuring fold reduction in doxorubicin IC50; assay type: cell-based
Homo sapiens [5] = organism: Homo sapiens; experiment: Inhibition of P-gp in human A549/DDP cells assessed as potentiation of doxorubicin-induced cytotoxicity; assay type: cell-based
Homo sapiens [6] = organism: Homo sapiens; experiment: Inhibition of P-gp in human MCF7/DOX cells assessed as potentiation of mitoxantrone-induced cytotoxicity by measuring fold reduction in mitoxantrone IC50 at 50 uM after 48 hrs by MTT assay; assay type: cell-based
MES-SA/Dx5 = experiment: Inhibition of P-gp in human MES-SA/Dx5 cells assessed as potentiation of paclitaxel-induced cytotoxicity; assay type: cell-based
Homo sapiens [7] = organism: Homo sapiens; experiment: Inhibition of P-gp in human KB/VCR cells assessed as potentiation of vincristine-induced cytotoxicity by measuring fold reduction in vincristine IC50; assay type: cell-based
Homo sapiens [8] = organism: Homo sapiens; experiment: Inhibition of P-gp in human Bel7402/5-FU cells assessed as increase in intracellular accumulation of Rh123 at 0.8 mg/ml preincubated for 48 hrs followed by Rh123 addition measured after 2 hrs by FACS analysis relative to control; assay type: cell-based
Homo sapiens [9] = organism: Homo sapiens; experiment: Inhibition of P-gp in human Bel7402/5-FU cells assessed as increase in intracellular accumulation of doxorubicin at 0.4 mg/ml preincubated for 48 hrs followed by doxorubicin addition measured after 2 hrs by FACS analysis relative to control; assay type: cell-based
[10] = Cytotoxicity against human KB1 cells; assay type: functional; conditions: read-out: ED50 (the source's name)
NCI-H460 = experiment: Inhibition of P-gp in human NCI-H460 resistant cells assessed as potentiation of doxorubicin-induced cytotoxicity by measuring fold reduction in doxorubicin IC50; assay type: cell-based
Homo sapiens [11] = organism: Homo sapiens; experiment: Inhibition of P-gp in human K562/VCR cells assessed as potentiation of doxorubicin-induced cytotoxicity by measuring fold reduction in doxorubicin IC50; assay type: cell-based
Homo sapiens [12] = organism: Homo sapiens; experiment: Inhibition of P-gp in human SW620/AD300 cells assessed as potentiation of taxol-induced cytotoxicity by measuring fold reduction in taxol IC50; assay type: cell-based
Homo sapiens [13] = organism: Homo sapiens; experiment: Inhibition of P-gp in human MCF7/DOX cells assessed as potentiation of doxorubicin-induced cytotoxicity by measuring doxorubicin ED50; assay type: cell-based
[14] = molecular target: T1, ATP-dependent translocase ABCB1 (Homo sapiens, UniProt P08183); experiment: Inhibition of MDR1 in human KB-C2 cells assessed as potentiation of vincristine-induced cytotoxicity by measuring fold reduction in vincristine IC50; assay type: cell-based
T1 sequence (P08183 whole entry): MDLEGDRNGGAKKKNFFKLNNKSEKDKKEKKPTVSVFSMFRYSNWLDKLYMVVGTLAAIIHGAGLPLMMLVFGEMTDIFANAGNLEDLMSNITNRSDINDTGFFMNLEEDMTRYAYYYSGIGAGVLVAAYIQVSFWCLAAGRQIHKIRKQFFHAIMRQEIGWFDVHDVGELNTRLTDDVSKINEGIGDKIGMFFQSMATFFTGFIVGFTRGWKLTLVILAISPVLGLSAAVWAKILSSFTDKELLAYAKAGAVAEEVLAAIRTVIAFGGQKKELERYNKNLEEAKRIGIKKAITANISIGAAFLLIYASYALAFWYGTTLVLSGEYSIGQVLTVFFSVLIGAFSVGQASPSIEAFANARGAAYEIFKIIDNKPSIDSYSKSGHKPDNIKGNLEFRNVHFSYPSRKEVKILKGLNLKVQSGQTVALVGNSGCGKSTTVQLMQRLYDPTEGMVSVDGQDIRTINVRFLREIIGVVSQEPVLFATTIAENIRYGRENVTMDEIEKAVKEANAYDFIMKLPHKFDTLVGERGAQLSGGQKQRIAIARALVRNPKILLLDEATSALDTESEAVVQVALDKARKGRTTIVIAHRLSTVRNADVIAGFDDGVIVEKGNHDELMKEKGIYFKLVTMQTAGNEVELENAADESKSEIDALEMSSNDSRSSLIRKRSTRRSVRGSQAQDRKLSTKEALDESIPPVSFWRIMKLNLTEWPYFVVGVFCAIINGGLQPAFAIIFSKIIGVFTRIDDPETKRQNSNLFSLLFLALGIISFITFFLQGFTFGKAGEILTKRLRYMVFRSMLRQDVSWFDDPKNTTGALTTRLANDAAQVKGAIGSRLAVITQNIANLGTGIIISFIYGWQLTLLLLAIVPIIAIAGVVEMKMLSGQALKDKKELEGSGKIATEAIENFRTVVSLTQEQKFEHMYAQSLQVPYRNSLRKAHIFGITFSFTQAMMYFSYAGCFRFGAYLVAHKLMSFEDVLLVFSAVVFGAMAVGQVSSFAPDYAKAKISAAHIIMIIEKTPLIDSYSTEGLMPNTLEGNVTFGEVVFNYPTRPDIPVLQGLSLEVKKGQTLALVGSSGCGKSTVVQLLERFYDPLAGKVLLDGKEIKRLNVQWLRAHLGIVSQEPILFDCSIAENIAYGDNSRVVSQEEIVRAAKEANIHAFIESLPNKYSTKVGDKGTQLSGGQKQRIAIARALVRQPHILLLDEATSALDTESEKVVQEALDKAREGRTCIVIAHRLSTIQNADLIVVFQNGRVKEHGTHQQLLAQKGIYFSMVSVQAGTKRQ

Homo sapiens [15] = organism: Homo sapiens; experiment: Inhibition of P-gp in human CEM/DOX5000 cells assessed as potentiation of doxorubicin-induced cytotoxicity by measuring fold reduction in doxorubicin IC50; assay type: cell-based
Homo sapiens [16] = organism: Homo sapiens; experiment: Inhibition of P-gp in human KBV1 cells assessed as potentiation of vinblastine-induced cytotoxicity by measuring fold reduction in vinblastine IC50 at 50 uM; assay type: cell-based
K562/A02 [17] = experiment: Inhibition of P-gp in human K562/A02 cells assessed as potentiation of doxorubicin-induced cytotoxicity by measuring fold reduction in doxorubicin IC50; assay type: cell-based
[18] = molecular target: T1, ATP-dependent translocase ABCB1; experiment: Inhibition of human MDR1 expressed in mouse L5178 cells assessed as accumulation of Rh123 by measuring fluorescence activity ratio preincubated for 10 mins followed by Rh123 addition measured after 20 mins by FACS analysis; assay type: cell-based

## CO[C@@]1(C)N(C/C=C/c2ccccc2)C(=O)C2=C[C@@]3(C(=O)N(C)c4ccccc43)C(=O)N21
Homo sapiens [1]
  fold change (FC): 10
Homo sapiens [2]
  fold change (FC): 42
K562/A02 [3]
  fold change (FC): 16

## C[n+]1cc2c3c(ccc2c2ccc4cc5c(cc4c21)OCO5)OCO3
Homo sapiens [4]
  fold change (FC): 18

## O=C(/C=C/C=C/c1ccc2c(c1)OCO2)N1CCCCC1
Homo sapiens [5]
  fold change (FC): 14
Homo sapiens [6]
  fold change (FC): 7
Homo sapiens [2]
  fold change (FC): 32

## COc1ccc2c(c1)C(=O)c1c(OC)c(OC)c(OC)c3ccnc-2c13
MES-SA/Dx5
  ED50: 0.03 µg/mL

## CC[C@]12CCCN[C@]13/C(=C\C(=O)OC)c1ccccc1N3C(=O)CC2
Homo sapiens [7]
  fold change (FC): 4.7

## CC(C)[C@H](NC(=O)[C@H](CO)NC(=O)[C@@H](N)Cc1ccc(O)cc1)C(=O)O (H-Tyr-Ser-Val-OH)
Homo sapiens [8]
  fold change (FC): 1 to 2
Homo sapiens [9]
  fold change (FC): 3

## CC(/C=C/C=C\C=C\C=C(/C)C(=O)N[C@@H](C)CO)=C\[C@@H](C)[C@@H](O)/C(C)=C/[C@@H](C)CCc1ccccc1
[10]
  EC50: 0.03 nM

## H-KILRGVCKKIMRTFLRRISKDILTGKK-OH
NCI-H460
  fold change (FC): 5

## O=C1CCC[C@@H]2[C@H]3CCCN4CCC[C@@H](CN12)[C@@H]34
Homo sapiens [11]
  fold change (FC): 2.2

## C=C/C=C\[C@H](C)[C@H](OC(N)=O)[C@@H](C)[C@H](O)[C@@H](C)C/C(C)=C\[C@H](C)[C@@H](O)[C@@H](C)/C=C\[C@@H](O)C[C@@H]1OC(=O)[C@H](C)[C@@H](O)[C@H]1C
Homo sapiens [12]
  fold change (FC): 4

## CC(/C=C/C#C/C=C/C=C(\C)C(=O)N[C@@H](C)CO)=C\[C@@H](C)[C@@H](O)/C(C)=C/[C@@H](C)CCc1ccccc1
Homo sapiens [13]
  ED50: 0.2 nM

## COc1cc2c(cc1O)CCN[C@]21CS[C@@H]2c3c(OC(C)=O)c(C)c4c(c3[C@H](COC1=O)N1[C@@H]2[C@H]2c3c(cc(C)c(OC)c3O)C[C@@H]([C@@H]1O)N2C)OCO4 [TRABECTEDIN]
[14]
  fold change (FC): 16

## CN1[C@@H](CC(=O)c2ccccc2)CCC[C@H]1CC(O)c1ccccc1 (some centres not stated)
Homo sapiens [4]
  fold change (FC): 3.5
Homo sapiens [15]
  fold change (FC): 2.5 to 3

## CC[C@@H](O)[C@H]1CC[C@H]2O[C@H]3CCN1[C@@H]2[C@@H]1C3O/C(=C2\OC(=O)C(C)=C2OC)[C@H]1C (some centres not stated)
Homo sapiens [16]
  fold change (FC): 2

## CCCCC(CC(C)=O)n1cnc2c(N)ncnc21 (configuration not stated)
K562/A02 [17]
  fold change (FC): 1.5 to 2.7

## Cn1c2ccccc2c(=O)c2c(O)cc3c(c21)CC(C(C)(O)CO)O3 (configuration not stated) [GRAVACRIDONDIOL]
[18]
  Ratio: 1.72

— ChEMBL document CHEMBL4190243, “Natural alkaloids as P-gp inhibitors for multidrug resistance reversal in cancer” (Eur J Med Chem, 2017)
